Experimental data as given in PubChem BioAssay (NCI).
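96-well plates; 48 h exposure; 5 concentrations. Endpoints by linear interpolation between flanking doses. Not reached: highest tested concentration assigned. GI50: concentration for 50% inhibition of growth. At the TGI there is no net growth.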

How the values were obtained:
Assay in all cases: NCI-60 cell line screen, 48 h
ACHN renal = system: ACHN renal
A549 NSCLC = system: A549 NSCLC
OVCAR-4 ovarian = system: OVCAR-4 ovarian
SK-MEL-5 melanoma = system: SK-MEL-5 melanoma
NCI-H226 lung = system: NCI-H226 lung
MOLT-4 leukemia = system: MOLT-4 leukemia
MDA-MB-435 = system: MDA-MB-435
OVCAR-5 ovarian = system: OVCAR-5 ovarian
SF-295 CNS = system: SF-295 CNS
HT29 colon = system: HT29 colon
T-47D breast = system: T-47D breast
SK-MEL-2 melanoma = system: SK-MEL-2 melanoma
SF-539 CNS = system: SF-539 CNS
SNB-75 CNS = system: SNB-75 CNS
SW-620 colon = system: SW-620 colon
UACC-62 melanoma = system: UACC-62 melanoma
SK-MEL-28 melanoma = system: SK-MEL-28 melanoma
BT-549 breast = system: BT-549 breast
U251 CNS = system: U251 CNS
UACC-257 melanoma = system: UACC-257 melanoma
HL-60(TB) leukemia = system: HL-60(TB) leukemia
SNB-19 CNS = system: SNB-19 CNS
NCI-H522 lung = system: NCI-H522 lung
SR leukemia = system: SR leukemia
MALME-3M melanoma = system: MALME-3M melanoma
SK-OV-3 ovarian = system: SK-OV-3 ovarian
HS 578T breast = system: HS 578T breast
786-0 renal = system: 786-0 renal
UO-31 renal = system: UO-31 renal
LOX IMVI melanoma = system: LOX IMVI melanoma
TK-10 renal = system: TK-10 renal
HCT-15 colon = system: HCT-15 colon
MDA-MB-231 breast = system: MDA-MB-231 breast
RPMI-8226 leukemia = system: RPMI-8226 leukemia
EKVX NSCLC = system: EKVX NSCLC
OVCAR-8 ovarian = system: OVCAR-8 ovarian
MDA-N = system: MDA-N
SN12C renal = system: SN12C renal
NCI-H460 lung = system: NCI-H460 lung
DU-145 prostate = system: DU-145 prostate
HCC-2998 colon = system: HCC-2998 colon
KM12 colon = system: KM12 colon
COLO 205 colon = system: COLO 205 colon
RXF 393 renal = system: RXF 393 renal
NCI-H23 lung = system: NCI-H23 lung
HOP-62 NSCLC = system: HOP-62 NSCLC
SF-268 CNS = system: SF-268 CNS
IGROV1 ovarian = system: IGROV1 ovarian
PC-3 prostate = system: PC-3 prostate
CCRF-CEM leukemia = system: CCRF-CEM leukemia
CAKI-1 renal = system: CAKI-1 renal
MCF7 breast = system: MCF7 breast
HOP-92 NSCLC = system: HOP-92 NSCLC
OVCAR-3 ovarian = system: OVCAR-3 ovarian
K-562 leukemia = system: K-562 leukemia
M14 melanoma = system: M14 melanoma
NCI/ADR-RES ovarian = system: NCI/ADR-RES ovarian
HCT-116 colon = system: HCT-116 colon
A498 renal = system: A498 renal

## O=S(=O)(Nc1nccs1)c1ccc(Nc2nc(-c3cccs3)nc3ccc(I)cc23)cc1
ACHN renal
  TGI: > 75.2 µM
A549 NSCLC
  TGI: 71.2 µM
OVCAR-4 ovarian
  TGI: 63.2 µM
SK-MEL-5 melanoma
  TGI: 28.4 µM
NCI-H226 lung
  TGI: 74.8 µM
MOLT-4 leukemia
  TGI: > 62.4 µM
MDA-MB-435
  TGI: 44 µM
OVCAR-5 ovarian
  TGI: 86.3 µM
SF-295 CNS
  TGI: 43.1 µM
HT29 colon
  TGI: 51.7 µM
T-47D breast
  TGI: 56.6 µM
SK-MEL-2 melanoma
  TGI: > 77.9 µM
SF-539 CNS
  TGI: 68.3 µM
SNB-75 CNS
  TGI: 74 µM
SW-620 colon
  TGI: > 59.6 µM
UACC-62 melanoma
  TGI: 52.6 µM
SK-MEL-28 melanoma
  TGI: 56 µM
BT-549 breast
  TGI: 54 µM
U251 CNS
  TGI: 54.7 µM
UACC-257 melanoma
  TGI: > 65.7 µM
HL-60(TB) leukemia
  TGI: > 89.3 µM
SNB-19 CNS
  TGI: > 93 µM
NCI-H522 lung
  TGI: > 73.1 µM
SR leukemia
  TGI: 68.4 µM
MALME-3M melanoma
  TGI: 44.2 µM
SK-OV-3 ovarian
  TGI: 67 µM
HS 578T breast
  GI50: 14 µM
  TGI: > 70 µM
786-0 renal
  TGI: 89.4 µM
UO-31 renal
  TGI: 65.1 µM
LOX IMVI melanoma
  TGI: 51.8 µM
TK-10 renal
  TGI: 44.5 µM
HCT-15 colon
  TGI: > 80.9 µM
MDA-MB-231 breast
  GI50: > 37.8 µM
  TGI: > 57.2 µM
RPMI-8226 leukemia
  TGI: 20.1 µM
EKVX NSCLC
  TGI: 48.1 µM
OVCAR-8 ovarian
  TGI: > 69.4 µM
MDA-N
  TGI: > 100 µM
SN12C renal
  TGI: > 74.6 µM
NCI-H460 lung
  TGI: > 81.6 µM
DU-145 prostate
  TGI: 46.5 µM
HCC-2998 colon
  TGI: 51.5 µM
KM12 colon
  TGI: 44.1 µM
COLO 205 colon
  TGI: 38.2 µM
RXF 393 renal
  TGI: > 92.2 µM
NCI-H23 lung
  TGI: > 75.8 µM
HOP-62 NSCLC
  TGI: 51.1 µM
SF-268 CNS
  TGI: > 100 µM
IGROV1 ovarian
  TGI: 58.7 µM
PC-3 prostate
  TGI: 32.7 µM
CCRF-CEM leukemia
  TGI: > 19.9 µM
CAKI-1 renal
  TGI: 48.7 µM
MCF7 breast
  TGI: > 100 µM
HOP-92 NSCLC
  TGI: 40 µM
OVCAR-3 ovarian
  TGI: 39.9 µM
K-562 leukemia
  TGI: > 55.8 µM
M14 melanoma
  TGI: 58.5 µM
NCI/ADR-RES ovarian
  TGI: > 100 µM
HCT-116 colon
  TGI: 36.8 µM
A498 renal
  GI50: 17.4 µM
  TGI: > 62.3 µM
